Assay results: publication PMC7502707, “Characterization and validation of a preventative therapy for hypertrophic cardiomyopathy in a murine model of the disease” (Proceedings of the National Academy of Sciences of the …, 2020)
Marks after values point to notes of the source that are not given here.

Tested on: cTnI-G203S mice
Assay: Echocardiography of treated cTnI-G203S mice
Format: in vivo, mouse
Details: for FS / HW:BW / IVSD / IVSS / LVDPW / LVEDD / LVESD / LVSPW: 10 μM i.p. 3×/wk/5 wk, mean
Procedure: Male mice expressing the human cTnI gene encoding the human disease-causing mutation cTnI-G203S were used for all studies. The mice develop hallmark features of HCM by 21 wk ([7], [13]). Male mice expressing the normal human cTnI gene were used as controls (wt). Ten-week-old mice were used for in vitro studies. For in vivo studies, 20- or 30-wk-old cTnI-G203S mice were treated with 10 μM AID-TAT or AID[S]-TAT via intraperitoneal injection, 3×/wk/5 wk. In vivo dose of AID-TAT or AID[S]-TAT (10 μM) was calculated based on blood volume, equating to ∼2 mg/kg total BW. Male animal models were used to eliminate potential differences in responses due to sex. Experiments were performed in a total of 21 wt (AID[S]-TAT), 6 wt (AID-TAT), 15 cTnI-G203S (AID[S]-TAT), and 26 cTnI-G203S (AID-TAT) mice. All animals were randomly assigned to treatment groups. All animal studies were approved by the Animal Ethics Committee of The University of Western Australia in accordance with the 2013 Australian Code for the Care and Use of Animals for Scientific Purposes ([58]).
Echocardiographic measurement of left ventricular function were performed on mice under light methoxyflurane anesthesia using an i13L probe on a Vivid 7 Dimension ultrasound system (GE Healthcare), as previously described ([13], [29], [30]). Each n represents the average of quantitative measurements from wt or cTnI-G203S mice for each treatment group. Detailed methods are provided in SI Appendix.
Echocardiographic measurement of left ventricular function were performed on mice under light methoxyflurane anesthesia using an i13L probe on a Vivid 7 Dimension ultrasound system (GE Healthcare, Little Chalfont, United Kingdom) as previously described (4, 7). Echocardiographic measurements were taken on M-mode in triplicate from separate mice at a sweep speed of 200 mm/s. Each n represents the average of quantitative measurements from wt or cTnI-G203S mice for each treatment group. Measurements of left ventricular end diastolic diameter (LVEDD), left ventricular end systolic diameter (LVESD), fractional shortening (FS), left ventricular posterior wall in diastole (LVDPW), left ventricular posterior wall in systole (LVSPW), interventricular septum in diastole (IVSD), interventricular septum in systole (IVSS) and end diastolic diameter (EDD) were made. FS was calculated by the formula [(LVEDD-LVESD)/EDD] x 100. […]
(BioAssay Systems, Hayward CA). All assays were performed as per manufacturer’s instructions, using a spectrophotometer (PowerWave XS).

[1] = Post-HCM treatment (from 30 wk), 35-wk-old cTnI-G203S mice, n = 5
[2] = Pre-HCM treatment (from 20 wk), 25-wk-old cTnI-G203S mice, n = 7 AID(S)-TAT, n = 6 AID-TAT

Q: With QQLEEDLKGYLDWITQAE [AID-TAT] as the sequence, how does the FS [1] read?
A: Its FS is 48.48%.

Q: What about the “HW:BW” value [1] of the same sequence?
A: Its value is 5.81 mg/g.

Q: What about the IVSD [1] of the same sequence?
A: The IVSD was 0.95 mm.

Q: What about the IVSS [1] of the same sequence?
A: Its IVSS is 1.05 mm.

Q: What about the LVDPW [1] of the same sequence?
A: The LVDPW was 1.26 mm.

Q: And the LVEDD [1]?
A: Its LVEDD is 3.18 mm.

Q: What about the LVESD [1] of the same sequence?
A: The LVESD was 1.67 mm.

Q: And the LVSPW [1]?
A: The LVSPW was 1.43 mm.

Q: And the FS [2]?
A: Its FS is 38.26^† %.

Q: And the “HW:BW” value [2]?
A: Its value is 4.70^† mg/g.

Q: What about the IVSD [2] of the same sequence?
A: The IVSD was 0.73^† mm.

Q: What about the IVSS [2] of the same sequence?
A: Its IVSS is 0.82^† mm.

Q: And the LVDPW [2]?
A: Its LVDPW is 1.23 mm.

Q: And the LVEDD [2]?
A: Its LVEDD is 3.33^† mm.

Q: What about the LVESD [2] of the same sequence?
A: The LVESD was 2.06^† mm.

Q: And the LVSPW [2]?
A: The LVSPW was 1.37 mm.

Q: What about the “reversal of established HCM” value (cTnI-G203S mice with established HCM, 10 μM 3×/wk/5 wk) of the same sequence?
A: The value was “not effective at reversing the cardiomyopathy”.

Q: What about the “development of HCM” value (precardiomyopathic cTnI-G203S mice, 10 μM 3×/wk/5 wk) of the same sequence?
A: Its value is “prevents the development of HCM”.
